Reference: patent US20260022103A1, “PRAMIPEXOLE XINAFOATE AND SUSTAINED-RELEASE PHARMACEUTICAL FORMULATION THEREOF” (JEWIM PHARMACEUTICAL (SHANDONG) CO., LTD., priority 2022, published 2026)
Where a name gives a salt, the structure may show the parent alone. Read-outs that look alike come from different tables or passages of the source.

Key:
dopamine D2 receptor = dopamine D2 receptor (Homo sapiens, UniProt P14416); details: cited from earlier work
[1] = for Saturation concentration: 48 h
Procedure: The concentrations of the pramipexole salts in different media for saturation at 48 h were determined by a shake flask dissolution method at 37° C.

[2] = Pharmacokinetics of different pramipexole salt suspension injections in rats; format: in vivo; details: subcutaneous suspension injection
Procedure: 18 adult rats, including 12 males and 6 females (non-perilactation period), were selected and divided into three groups with 6 rats each group (a ratio of males to females of 2:1), and subcutaneously administered with 2 ml of the suspension injections of Examples 3-5 respectively. The main pharmacokinetic parameters of each of test animals were determined: the time to peak, the maximal blood drug level and AUC0-t.

[3] = Phosphate buffer at pH 6.8, 37° C.
[4] = Phosphate buffer at pH 7.4, 37° C.

Sequence of dopamine D2 receptor (P14416 whole entry, species assumed): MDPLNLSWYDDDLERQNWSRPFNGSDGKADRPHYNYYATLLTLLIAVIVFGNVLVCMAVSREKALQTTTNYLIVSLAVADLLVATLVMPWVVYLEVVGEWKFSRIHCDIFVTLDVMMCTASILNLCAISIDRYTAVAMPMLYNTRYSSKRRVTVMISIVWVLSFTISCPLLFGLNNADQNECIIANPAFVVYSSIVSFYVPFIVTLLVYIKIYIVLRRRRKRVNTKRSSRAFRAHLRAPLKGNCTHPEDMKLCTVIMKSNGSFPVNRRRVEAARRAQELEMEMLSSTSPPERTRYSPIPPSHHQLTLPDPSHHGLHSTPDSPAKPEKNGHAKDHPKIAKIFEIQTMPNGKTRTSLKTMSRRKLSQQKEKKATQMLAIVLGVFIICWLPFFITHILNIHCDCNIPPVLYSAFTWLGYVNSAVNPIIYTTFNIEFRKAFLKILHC

Row | Saturation concentration ([1]; 0.9% NaCl, 37° C.) | Saturation concentration [1, 3] | Saturation concentration [1, 4] | Saturation concentration ([1]; Water for injection, 37° C.) | Compound | other results
1 | – | – | – | – | CCCN[C@H]1CCc2nc(N)sc2C1 [S(−) isomer, (S)-(−)-2-amino-6-(propylamino)-4,5,6,7-tetrahydrobenzothiazole] | Affinity to dopamine D2 receptor relative to the R(+) isomer (dopamine D2 receptor; ratio versus R(+) isomer): 8-10 times; Affinity to dopamine D2 receptor relative to the racemate (dopamine D2 receptor; ratio versus racemate): 2 times
2 | 1.05 µg/mL | 2.64 µg/mL | 4.66 µg/mL | 0.78 µg/mL | CCCN[C@H]1CCc2nc(N)sc2C1 [pramipexole xinafoate] | Solubility compared with the other salts ([1]; summary of Table 1): significantly decreased; Duration of sustained release [2]: up to 35 days
3 | 227.63 µg/mL | 275.34 µg/mL | 345.29 µg/mL | 189.25 µg/mL | pramipexole pamoate | –
4 | 325.91 µg/mL | 392.11 µg/mL | 427.37 µg/mL | 292.72 µg/mL | CCCN[C@H]1CCc2nc(N)sc2C1.O=C(O)c1ccccc1 [pramipexole benzoate] | –
5 | – | – | – | – | CCCN[C@H]1CCc2nc(N)sc2C1 [pramipexole hydrochloride, Pramipexole hydrochloride] | Saturation concentration ([1]; 0.9% NaCl, 37° C., hydrochloride): 1207.41 µg/mL; Saturation concentration ([1]; Phosphate buffer at pH 6.8, 37° C., hydrochloride): 1249.45 µg/mL; Saturation concentration ([1]; Phosphate buffer at pH 7.4, 37° C., hydrochloride): 1363.53 µg/mL; Saturation concentration ([1]; Water for injection, 37° C., hydrochloride): 1187.36 µg/mL
